Laboratory results from patent US8148392B2, “2-indolyl imidazo [4,5-d] phenanthroline derivatives and their use in the treatment of cancer” (Lorus Therapeutics Inc., priority 2005, dated 2012).
“Also recorded” adds a separate entry of the source. Where two headings read alike, the source gives them in different places.

Experiments:
Type in all cases: cell-based, human
[1] = tested on: MDA-MB-435 breast cancer cells; experiment: XTT cell proliferation assay, MDA-MB-435; conditions: read-out: IC50 (cell growth inhibition)
Procedure: Cell growth inhibition IC50 (μM) by compounds of Formula I was tested on various cancer cell types by XTT cell proliferation assay. The growth inhibitory effects of the compounds of Formula I as shown below for the melanoma cell line SK-MEL-2 were reproducible by Lorus Therapeutics Inc.

[2] = tested on: KLF4; experiment: KLF4 gene expression by RT-PCR, HT-29; conditions: for KLF4 expression change with zinc supplement: HT-29, 1 μM compound plus 35 μM ZnCl2, 16 hr; for KLF4 gene expression, change: HT-29, 1 μM, in words; for KLF4 (gene fold increase): HT-29, relative to vehicle control as 1
Procedure: To determine whether compounds of Formula I can chelate zinc in cells, the effect of compound 3 on the expression level of a zinc-regulated gene, metallothionein 1A (MT1A), in human colon carcinoma HT-29 cells, was determined. HT-29 cells, 1×10^6 cells in 10 mL volume of the growth medium were seeded in 100 mm dishes and incubated overnight at 37° C. The medium was removed and replaced with the growth medium containing 35 μM ZnCl2, 1 μM or 4 μM TPEN (NNNN-tetrakis(2-pyridyl-methyl)ethylenediamine), or 1 μM or 4 μM compound 3, or 0.1% DMSO vehicle control. After incubation for 16 hours, the cells were detached by trypsinization, collected by centrifugation and washed once with PBS. Total RNA was extracted by using TRIZOL (Invitrogen, Life Technologies, Carlsbad, Calif.), following manufacturer's instruction, and the level of MT1A mRNA was measured by real time PCR using the comparative CT method as follows. First strand cDNA was synthesized from 200 ng total RNA in Biometra Tpersonal Thermal Cycler (Abgene, UK), using pd(N)6 random hexamer (Amersham Biosciences, Piscataway, N.J.) and SuperScript™ II Reverse Transcriptase kit (Invitrogen) by following manufacturer's protocol. Real-time PCR was performed in ABI Prism 7000 Sequence Detection System (Applied Biosystems Inc., ABI, Foster City, Calif.), using 5 μL of cDNA synthesized by above-mentioned procedure and respective TaqMan® Gene Expression Assays (ABI) by following ABI TaqMan® Universal PCR master mix protocol.
The ability of compounds of Formula I to modulate the mRNA level of a transition metal-regulated tumour suppressor gene was determined in vitro as follows. Compound 3 was tested to determine its ability to increase the expression of zinc-regulated tumour suppressor KLF4 mRNA in colon carcinoma HT-29 cells. […] HT-29 cells were incubated for 16 hours with DMSO as a vehicle control, 35 μM ZnCl2, 1 μM or 4 μM of compound 3, or 1 μM or 4 μM TPEN for 16 hours and mRNA was extracted from the cells as described in Example 19. The expression of KLF4 mRNA was analyzed by real-time polymerase chain reaction using the comparative CT method also as described in Example 19. Compound 3 induced the expression of KLF4 mRNA (approximately 8-fold) in HT-29 cells compared with HT-29 cells treated with vehicle alone (See FIG. 8).
(§1) Gene expression levels of KLF4, induced by compounds of Formula I, were also examined on various cancer cell types by RT-PCR. Fold changes in KLF4 in compound-treated cells were expressed relative to KLF4 expression in vehicle control-treated cells of respective cell type as “1”. […] Additionally, xenografts of MDA-MB-435 implanted into mammary fat pads of female SCID mice have shown immunohistochemical staining consistent with melanocytic origin (Ellison G, Klinowska T, Westwood R F, Docter E, French T, Fox J C. (2002) Mol Pathol. 55(5): 294-299). The breast cancer cell line MDA-MB-435 may be expected to function differently than the other breast cancer cell lines.
The change in gene expression of KLF4 upon zinc depletion following compound 3 treatment was determined by RT-PCR as follows. HT-29 cells were treated with 1 μM compound 3 for the indicated time (FIG. 39A) or HT-29 cells were treated with 1 μM compound 3, 35 μM ZnCl2 or compund 3 and ZnCl2 together for 16 hr (FIG. 39B). Total RNA was extracted and gene expression level was determined by RT-PCR.
Fold change in KLF4 gene expression was presented relative to KLF4 expression in non-specific siRNA-transfected cells treated with vehicle control.

[3] = tested on: KLF4; experiment: KLF4 gene expression by RT-PCR, HCT-116; conditions: HCT-116, relative to vehicle control as 1
Excerpt: as §1

[4] = tested on: KLF4; experiment: KLF4 gene expression by RT-PCR, H-460; conditions: for KLF2, KLF4 and KLF6 gene expression: H-460, 2.5 μM; for KLF4 (gene fold increase): H-460, relative to vehicle control as 1
Excerpt: as §1
Expressions of KLF2, 4 and 6 genes in H-460 cells, treated with vehicle control or 2.5 μM compound 3 or compound 7, were measured by RT-PCR. Gene expression was presented relative to respective gene expression in vehicle control-treated group as “1”.

[5] = tested on: KLF4; experiment: KLF4 gene expression by RT-PCR, MDA-MB-231; conditions: MDA-MB-231, relative to vehicle control as 1
Excerpt: as §1

[6] = tested on: KLF4; experiment: KLF4 gene expression by RT-PCR, MOLT-4; conditions: MOLT-4, relative to vehicle control as 1
Excerpt: as §1

[7] = tested on: Cyclin D1; experiment: Cyclin D1 gene expression in HT-29 cells, RT-PCR; conditions: for Cyclin D1 expression change with zinc supplement: HT-29, 1 μM compound plus ZnCl2; for Cyclin D1 gene expression, change: HT-29, 1 μM, in words
Procedure: Gene and protein expression of Cyclin D1 after treatment with compound 3 was determined by RT-PCR and Western blotting as shown in FIGS. 43A and 43B, respectively, as follows. HT-29 cells were treated with 1 μM compound 3 for indicated time. Total RNA was extracted and gene expression level was determined by RT-PCR. Cyclin D1 protein expression in HT-29 cell lysate was determined by SDS-PAGE followed by Western blotting.
To identify the cell cycle regulatory pathway involved in compound 3-mediated cell cycle arrest as shown in Example 23 and 41, particularly associated with G1/S phase, expression of the key cell cycle regulator of G1/S phase progression, Cyclin D1, was examined.
The ability of compounds of Formula I to modulate gene expression of MT1A (FIG. 55A), MTF-1 (FIG. 55B), Cyclin D1 (FIG. 55C) and KLF4 (FIG. 55D) was determined by RT-PCR. HT-29 cells were treated with 1 μM compound 3 or compound 7, 35 μM ZnCl2, compound 3 and ZnCl2 together, or compound 7 and ZnCl2 together for 8 to 16 hr. The respective gene expression was normalized with β-actin gene expression in the same sample. Fold change in gene expression was expressed relative to the respective gene level of DMSO control.
The effect of compound 3 and compound 64 on gene expression changes in MT1A (FIG. 57A), MTF-1 (FIG. 57B), Cyclin D1 (FIG. 57C) and KLF4 (FIG. 57D) in HT-29 cells was determined by RT-PCR. HT-29 cells were treated with 1 μM compound 3 or compound 64, 35 μM ZnCl2, compound 3 and ZnCl2 together, or compound 64 and ZnCl2 together for 8 to 16 hr. The respective gene expression was normalized with β-actin gene expression in the same sample. Fold change in gene expression was expressed relative to the respective gene level of DMSO control.

IC50 [1] [µM]	Structure (SMILES)	IC50 ([1]; Homo sapiens) [µM]	KLF4 expression change with zinc supplement [2]	KLF4 gene expression, change [2]	induction of KLF4 mRNA ([2]; HT-29, 16 hours, 1 μM or 4 μM, versus vehicle)	KLF4 (gene fold increase) [2] [fold]	KLF4 gene expression after MTF-1 gene knock-down by siRNA ([2]; HT-29 transfected with MTF-1 siRNA)	KLF4 (gene fold increase) [3] [fold]	KLF2, KLF4 and KLF6 gene expression [4]	KLF4 (gene fold increase) [4] [fold]	KLF4 (gene fold increase) [5] [fold]	KLF4 (gene fold increase) [6] [fold]	Cyclin D1 expression change with zinc supplement [7]	Cyclin D1 gene expression, change [7]
–	Cc1[nH]c2ccccc2c1-c1nc2c3cccnc3c3ncccc3c2[nH]1 [Compound 3]	0.35	reversed by addition of zinc supplement	Time-dependent increase in KLF4; also recorded: increased expression of KLF4	approximately 8 fold	6.5	still increased	5.88	increased KLF4 as most significantly changed gene	3.4	1.52	44.79	reversed in the presence of 25 μM ZnCl2; also recorded: reversed by addition of zinc supplement	Time-dependent decreases; also recorded: decrease in both gene (FIG. 43A) and protein (FIG. 43B) levels of Cyclin D1; also recorded: significantly decreased; also recorded: decreased expressions of MT1A, MTF-1 and Cyclin D1
–	Cc1[nH]c2ccc(F)cc2c1-c1nc2c3cccnc3c3ncccc3c2[nH]1 [Compound 7]	0.2	reversed by addition of zinc supplement	increased expression of KLF4	–	8.66	–	6.15	increased KLF4 as most significantly changed gene	2.1	1.6	173.6	reversed by addition of zinc supplement	decreased expressions of MT1A, MTF-1 and Cyclin D1
0.5	CCc1cccc2c(-c3nc4c5cccnc5c5ncccc5c4[nH]3)c(C(C)(C)C)[nH]c12 [Compound 64]	–	reversed by addition of zinc supplement	increased expression of KLF4	–	5.96	–	3.05	–	1.64	2.06	265.03	reversed by addition of zinc supplement	decreased expressions of MT1A, MTF-1 and Cyclin D1
